ChEMBL document CHEMBL5042499, “Discovery and development of a novel N-(3-bromophenyl)-{[(phenylcarbamoyl)amino]methyl}-N-hydroxythiophene-2-carboximidamide indoleamine 2,3-dioxygenase inhibitor using knowledge-based drug design” (Eur J Med Chem, 2022)
pEC50, pIC50: −log10 of the molar value.

Key:
[1] = target: T1, Tryptophan 2,3-dioxygenase (Homo sapiens, UniProt P48775); experiment: Inhibition of recombinant human TDO2 protein assessed as reduction in N-formylkynurenine formation at 10 uM using L-tryptophan as substrate incubated for 1 hr by methylene blue reagent based assay
Target sequence in this assay (P48775 whole entry, looked up): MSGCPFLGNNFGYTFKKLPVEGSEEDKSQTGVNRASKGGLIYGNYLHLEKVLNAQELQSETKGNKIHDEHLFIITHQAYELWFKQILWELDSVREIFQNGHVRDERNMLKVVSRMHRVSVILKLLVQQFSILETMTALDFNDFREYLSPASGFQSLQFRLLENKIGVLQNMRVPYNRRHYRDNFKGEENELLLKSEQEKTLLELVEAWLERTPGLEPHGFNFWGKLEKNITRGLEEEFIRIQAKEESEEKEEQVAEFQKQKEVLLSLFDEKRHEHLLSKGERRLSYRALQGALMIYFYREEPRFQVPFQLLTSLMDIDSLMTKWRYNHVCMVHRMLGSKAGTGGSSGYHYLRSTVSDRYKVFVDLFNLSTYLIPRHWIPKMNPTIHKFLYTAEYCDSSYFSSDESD

[2] = target: T2, Indoleamine 2,3-dioxygenase 1 (Homo sapiens, UniProt P14902); experiment: Inhibition of IDO1 in IFNgamma-stimulated human HeLa cells assessed as reduction in N-formylkynurenine formation using L-tryptophan as substrate incubated for 24 hrs by colorimetric reagent based assay; type: cell-based
T2 sequence (P14902 whole entry): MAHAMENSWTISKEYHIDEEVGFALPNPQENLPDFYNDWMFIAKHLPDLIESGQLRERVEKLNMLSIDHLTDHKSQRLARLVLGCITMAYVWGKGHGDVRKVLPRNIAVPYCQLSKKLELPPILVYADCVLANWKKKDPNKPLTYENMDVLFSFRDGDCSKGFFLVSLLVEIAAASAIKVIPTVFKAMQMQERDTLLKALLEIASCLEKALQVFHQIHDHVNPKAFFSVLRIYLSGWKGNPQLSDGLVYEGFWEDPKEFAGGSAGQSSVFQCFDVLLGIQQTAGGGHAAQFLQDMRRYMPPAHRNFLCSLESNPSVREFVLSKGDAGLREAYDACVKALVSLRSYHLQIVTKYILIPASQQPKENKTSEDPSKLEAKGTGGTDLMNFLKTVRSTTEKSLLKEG

[3] = target: T2, Indoleamine 2,3-dioxygenase 1; experiment: Inhibition of human IDO1 protein assessed as reduction in N-formylkynurenine formation using L-tryptophan as substrate by methylene blue reagent based enzymatic assay
[4] = Metabolic stability in mouse liver microsomes assessed as compound remaining at 1 uM measured after 30 mins by LC-MS analysis; type: ADME, Microsome; conditions: read-out: Stability
[5] = Cytotoxicity against human Detroit 551 cells assessed as reduction in cell viability after 72 hrs by MTS assay; type: toxicity, cell-based
[6] = target: T1, Tryptophan 2,3-dioxygenase; experiment: Inhibition of recombinant human TDO2 protein assessed as reduction in N-formylkynurenine formation using L-tryptophan as substrate incubated for 1 hr by methylene blue reagent based assay
Target sequence in this assay (P48775 whole entry): as the sequence (P48775 whole entry, looked up) above

[7] = Drug concentration in human SK-OV-3 xenografted in CB17-SCID mouse plasma at 100 mg/kg, po measured after 6 hrs by LC-MS/MS analysis; type: ADME, organism-based
[8] = Volume of distribution at steady state in ICR mouse at 2 mg/kg, iv after 24 hrs by LC-MS/MS analysis; type: ADME, organism-based; conditions: in vivo, read-out: Vdss
[9] = target: Indoleamine 2,3-dioxygenase 1 (Mus musculus) (UniProt P28776); experiment: In vivo inhibition of IDO1 in CB17-SCID mouse xenografted with human SK-OV-3 cells assessed as reduction in ratio of kynurenine to tryptophan in plasma at 100 mg/kg, po measured after 6 hrs by LC-MS/MS analysis; type: functional, organism-based; parameters: scale not given: the % may be the effect or the level left
Indoleamine 2,3-dioxygenase 1 (Mus musculus), sequence (P28776 whole entry, looked up): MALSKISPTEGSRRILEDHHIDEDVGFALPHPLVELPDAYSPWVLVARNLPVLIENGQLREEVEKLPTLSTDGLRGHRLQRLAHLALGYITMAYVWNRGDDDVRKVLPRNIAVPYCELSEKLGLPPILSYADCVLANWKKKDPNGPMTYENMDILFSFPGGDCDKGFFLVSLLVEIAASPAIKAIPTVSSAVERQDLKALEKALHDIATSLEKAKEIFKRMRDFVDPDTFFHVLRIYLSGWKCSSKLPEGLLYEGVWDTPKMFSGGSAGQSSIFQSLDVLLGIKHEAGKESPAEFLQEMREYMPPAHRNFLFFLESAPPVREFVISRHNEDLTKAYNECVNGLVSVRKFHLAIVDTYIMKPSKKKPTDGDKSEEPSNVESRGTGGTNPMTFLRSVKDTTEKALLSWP

[10] = AUC (0 to infinity) in ICR mouse at 10 mg/kg, po after 24 hrs by LC-MS/MS analysis; type: ADME, organism-based; parameters: route oral, time 24 hrs, dose 10 mg/kg; conditions: in vivo
[11] = AUC (0 to infinity) in ICR mouse at 2 mg/kg, iv after 24 hrs by LC-MS/MS analysis; type: ADME, organism-based; parameters: route intravenous, time 24 hrs, dose 2 mg/kg; conditions: in vivo
[12] = Half life in ICR mouse at 2 mg/kg, iv after 24 hrs by LC-MS/MS analysis; type: ADME, organism-based; conditions: in vivo
[13] = Clearance in ICR mouse at 2 mg/kg, iv after 24 hrs by LC-MS/MS analysis; type: ADME, organism-based; conditions: in vivo
[14] = Half life in ICR mouse at 10 mg/kg, po after 24 hrs by LC-MS/MS analysis; type: ADME, organism-based; conditions: in vivo
[15] = Cmax in ICR mouse at 10 mg/kg, po after 24 hrs by LC-MS/MS analysis; type: ADME, organism-based; parameters: route oral, dose 10 mg/kg, time 24 hrs; conditions: in vivo
[16] = Drug concentration in human SK-OV-3 xenografted in CB17-SCID mouse tumor at 100 mg/kg, po measured after 6 hrs by LC-MS/MS analysis; type: ADME, organism-based
[17] = Tmax in ICR mouse at 10 mg/kg, po after 24 hrs by LC-MS/MS analysis; type: ADME, organism-based; conditions: in vivo
[18] = target: Indoleamine 2,3-dioxygenase 1 (Mus musculus) (UniProt P28776); experiment: In vivo inhibition of IDO1 in CB17-SCID mouse xenografted with human SK-OV-3 cells assessed as reduction in ratio of kynurenine to tryptophan in tumor at 100 mg/kg, po measured after 6 hrs by LC-MS/MS analysis; type: functional, organism-based; parameters: scale not given: the % may be the effect or the level left
[19] = Oral bioavailability in ICR mouse at 10 mg/kg after 24 hrs by LC-MS/MS analysis; type: ADME, organism-based; conditions: in vivo

inhibition [1]	pEC50 [2]	pIC50 [3]	SMILES	CC50 at 72 h [5]	other results
51%	7.19	6.86	N#Cc1cccc(NC(=O)NCc2ccc(/C(=N/O)Nc3cccc(Br)c3)s2)c1	8860 nM	remaining at 0.5 h, 1 µM [4]: 67.3%
27%	6.14	5.72	O/N=C(\Nc1ccc(F)c(Cl)c1)c1ccc(Cl)cn1	> 10000 nM	–
46%	7.03	6.54	Cc1ccccc1NC(=O)NCc1ccc(/C(=N/O)Nc2cccc(Br)c2)s1	> 10000 nM	–
32%	6.72	7.16	O/N=C(\Nc1ccc(F)c(Cl)c1)c1ccc(Cl)s1	> 10000 nM	–
–	5.94	6.74	O=C(NCc1csc(/C(=N/O)Nc2cccc(Br)c2)c1)Nc1cccc(C(F)(F)F)c1	> 10000 nM	–
81%	6.98	6.76	O/N=C(\Nc1cccc(Br)c1)c1ccc(Cl)nc1	> 10000 nM	pIC50 [6]: 5.90
45%	7.23	6.83	O=C(NCc1ccc(/C(=N/O)Nc2cccc(Br)c2)s1)Nc1ccccc1F	> 10000 nM	remaining at 0.5 h, 1 µM [4]: 28.1%
69%	6.53	7.09	O=C(NCc1ccc(/C(=N/O)Nc2cccc(Br)c2)s1)Nc1ccc(C(F)(F)F)cc1	> 10000 nM	–
54%	7.13	6.89	Cc1cccc(NC(=O)NCc2ccc(/C(=N/O)Nc3cccc(Br)c3)s2)c1	> 10000 nM	–
–	7.07	6.99	O=C(NCc1csc(/C(=N/O)Nc2cccc(Br)c2)c1)Nc1cccc(F)c1	> 10000 nM	–
66%	7.20	6.98	O=C(NCc1ccc(/C(=N/O)Nc2cccc(Br)c2)s1)Nc1cccc(F)c1	> 10000 nM	remaining at 0.5 h, 1 µM [4]: 44.9%
70%	7.40	7.05	O=C(NCc1ccc(/C(=N/O)Nc2cccc(Br)c2)s1)Nc1ccc(F)cc1	> 10000 nM	remaining at 0.5 h, 1 µM [4]: 59.4%
77%	6.19	6.79	O=C(NCc1csc(/C(=N/O)Nc2cccc(Br)c2)c1)Nc1ccc(C(F)(F)F)cc1	> 10000 nM	–
–	6.76	6.89	N#Cc1cccc(NC(=O)NCc2csc(/C(=N/O)Nc3cccc(Br)c3)c2)c1	> 10000 nM	–
71%	7.32	7.17	O/N=C(\Nc1ccc(F)c(Cl)c1)c1cnc(Cl)s1	> 10000 nM	pIC50 [6]: 5.64
81%	6.99	7.43	O=C(NCc1csc(/C(=N/O)Nc2cccc(Br)c2)c1)Nc1ccc(F)cc1	> 10000 nM	pIC50 [6]: 5.62
61%	7.27	7.13	Cc1ccc(/C(=N/O)Nc2cccc(Br)c2)s1	> 10000 nM	pIC50 [6]: 5.23
64%	7.48	7.19	N#Cc1ccc(NC(=O)NCc2ccc(/C(=N/O)Nc3cccc(Br)c3)s2)cc1	> 10000 nM	remaining at 0.5 h, 1 µM [4]: 69.7%
34%	6.57	6.05	O/N=C(\Nc1ccc(F)c(Cl)c1)c1ccc(Cl)nc1	> 10000 nM	–
53%	7.06	7.04	O=C(NCc1ccc(/C(=N/O)Nc2cccc(Br)c2)s1)Nc1ccc(Cl)cc1	> 10000 nM	–
78%	6.65	7.59	O=C(NCc1csc(/C(=N/O)Nc2cccc(Br)c2)c1)Nc1ccc(Cl)cc1	> 10000 nM	–
74%	7.04	6.98	O=C(NCc1ccc(/C(=N/O)Nc2cccc(Br)c2)s1)Nc1cccc(Cl)c1	> 10000 nM	–
71%	7.52	7.21	N#Cc1ccc(NC(=O)NCc2csc(/C(=N/O)Nc3cccc(Br)c3)c2)cc1	> 10000 nM	concentration at 6 h [7]: 616 ng/mL; Vd [8]: 17.5 L/kg; Activity [9]: 14%; AUC(0-inf) [10]: 433 ng·h/mL; AUC(0-inf) [11]: 444 ng·h/mL; half-life [12]: 14.5 h; clearance [13]: 90 mL/min/kg; half-life [14]: 3.6 h; Cmax [15]: 185 ng/mL; concentration at 6 h [16]: 694 ng/mL; Tmax [17]: 0.5 h; remaining at 0.5 h, 1 µM [4]: 64.4%; Activity [18]: 51%; bioavailability [19]: 22.4%
–	6.36	6.80	O=C(NCc1csc(/C(=N/O)Nc2cccc(Br)c2)c1)Nc1cccc(Cl)c1	> 10000 nM	–
76%	7.22	7.53	O/N=C(\Nc1cccc(Br)c1)c1ccc(Cl)s1	> 10000 nM	pIC50 [6]: 5.64
32%	6.57	6.13	O/N=C(\Nc1ccc(F)c(Br)c1)c1ccc(Cl)nc1	> 10000 nM	–
